Data: patent US4097591A, “N^2 -arylsulfonyl-L-argininamides and the pharmaceutically acceptable salts thereof” (Mitsubishi Chemical Industries Limited, priority 1977, dated 1978)
Like-named read-outs stand apart in the source and are kept apart here.

Molecular target: T1, thrombin (Bos taurus, UniProt P00735)
T1 construct: clotting of bovine fibrinogen
Assay: fibrinogen coagulation time (prolongation by a factor of two)
Type: biochemical
Details: bovine fibrinogen, thrombin 5 units/ml, pH 7.4, 25° C, read-out: Concentration required to prolong the coagulation time by a factor of two
Experimental: The measurement of the fibrinogen coagulation time was conducted as follows:
Immediately after mixing, the reaction mixture was transferred from the ice bath to a bath maintained at 25° C. Coagulation times were taken as the period between the time of transference to the 25° C bath and the time of the first appearance of fibrin threads. […] The term "concentration required to prolong the coagulation time by a factor of two" is the concentration of an active ingredient required to prolong the normal coagulation time 50-55 seconds to 100-110 seconds.

[1] = pH 7.4, TABLE 2 (Sample Nos. 1-14, own numbering)
[2] = pH 7.4, first table (Sample Nos. 1-235)

In the case of `CCCCN(CC(=O)O)C(=O)[C@H](CCCNC(=N)N)NS(=O)(=O)c1ccc(OC)c(Cc2ccccc2)c1` [compound 2], the IC (2-fold clotting time) [1] is reported as 38 µM.

`CCCCN(CC(=O)O)C(=O)[C@H](CCCNC(=N)N)NS(=O)(=O)c1ccc(OC)c(C2CCCCC2)c1` [compound 3, N^2-(3-cyclohexyl-4-methoxyphenylsulfonyl)-L-arginyl-N-butylglycine] showed an IC (2-fold clotting time) [1] of 5 µM.

Work on `COCCN(CCC(=O)O)C(=O)[C@H](CCCNC(=N)N)NS(=O)(=O)c1ccc2cc(OC)c(OC)cc2c1` [compound 15] yielded an IC (2-fold clotting time) [2] of 2.5 µM.

For `COc1cc2ccc(S(=O)(=O)N[C@@H](CCCNC(=N)N)C(=O)N(CC(=O)O)Cc3ccccc3)cc2cc1OC` [compound 50], the IC (2-fold clotting time) [2] was 2.5 µM.

`Cc1ccc2ccc(S(=O)(=O)N[C@@H](CCCNC(=N)N)C(=O)N3CCC(C(C)C)CC3C(=O)O)cc2c1` (stereo partly drawn) [compound 175] was tested, and the IC (2-fold clotting time) [2] was 0.1 µM.

Work on `COc1ccc2ccc(S(=O)(=O)N[C@@H](CCCNC(=N)N)C(=O)N3CCOCC3C(=O)O)cc2c1` (stereo partly drawn) [compound 189] yielded an IC (2-fold clotting time) [2] of 2 µM.
